Measured values published in PubChem BioAssay AID1963958 (Molecular Pharmacology Branch, DTP, NCI, 2024).

Test system: MDA-MB-231 multicell spheroids, viability
Experiment: Anticancer human tumor MDA-MB-231 cell line growth inhibition [PI3K];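 note: spheroids exposed to agents for seven days before reading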;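 for viability, T/C: percent of vehicle control luminescence with DMSO treated spheroids as 100%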
Details: for IC50: curve of first compound; for viability, T/C: stronger effect = lower value; active = viability on the fitted dose curve at most 10% of control; inactive = the rest
Method in brief: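 Combination activity was assessed by viability in multicellular tumor spheroids carrying HUVEC and MSC components. Agents were tested with PI3K inhibitors from a Cmax-based top dose (or 10 microM) downward in half-log increments.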

[1] = second compound 0.0316 µM, first compound 0.0316 µM
[2] = second compound 0.0316 µM, first compound 0.1 µM
[3] = second compound 0.0316 µM, first compound 0.316 µM
[4] = second compound 0.0316 µM, first compound 1 µM
[5] = second compound 0.0316 µM, first compound 3.16 µM
[6] = second compound 0.0316 µM, first compound 10 µM
[7] = second compound 0.1 µM, first compound 0.0316 µM
[8] = second compound 0.1 µM, first compound 0.1 µM
[9] = second compound 0.1 µM, first compound 0.316 µM
[10] = second compound 0.1 µM, first compound 1 µM
[11] = second compound 0.1 µM, first compound 3.16 µM
[12] = second compound 0.1 µM, first compound 10 µM
[13] = second compound 0.316 µM, first compound 0.0316 µM
[14] = second compound 0.316 µM, first compound 0.1 µM
[15] = second compound 0.316 µM, first compound 0.316 µM
[16] = second compound 0.316 µM, first compound 1 µM
[17] = second compound 0.316 µM, first compound 3.16 µM
[18] = second compound 0.316 µM, first compound 10 µM
[19] = second compound 1 µM, first compound 0.0316 µM
[20] = second compound 1 µM, first compound 0.1 µM
[21] = second compound 1 µM, first compound 0.316 µM
[22] = second compound 1 µM, first compound 1 µM
[23] = second compound 1 µM, first compound 3.16 µM
[24] = second compound 1 µM, first compound 10 µM
[25] = second compound 3.16 µM, first compound 0.0316 µM
[26] = second compound 3.16 µM, first compound 0.1 µM
[27] = second compound 3.16 µM, first compound 0.316 µM
[28] = second compound 3.16 µM, first compound 1 µM
[29] = second compound 3.16 µM, first compound 3.16 µM
[30] = second compound 3.16 µM, first compound 10 µM
[31] = second compound 10 µM, first compound 0.0316 µM
[32] = second compound 10 µM, first compound 0.1 µM
[33] = second compound 10 µM, first compound 0.316 µM
[34] = second compound 10 µM, first compound 1 µM
[35] = second compound 10 µM, first compound 3.16 µM
[36] = second compound 10 µM, first compound 10 µM
[37] = second compound 0.0316 µM, first compound 0.00316 µM
[38] = second compound 0.0316 µM, first compound 0.01 µM
[39] = second compound 0.1 µM, first compound 0.00316 µM
[40] = second compound 0.1 µM, first compound 0.01 µM
[41] = second compound 0.316 µM, first compound 0.00316 µM
[42] = second compound 0.316 µM, first compound 0.01 µM
[43] = second compound 1 µM, first compound 0.00316 µM
[44] = second compound 1 µM, first compound 0.01 µM
[45] = second compound 3.16 µM, first compound 0.00316 µM
[46] = second compound 3.16 µM, first compound 0.01 µM
[47] = second compound 10 µM, first compound 0.00316 µM
[48] = second compound 10 µM, first compound 0.01 µM

CC(C)NCC(C(=O)N1CCN(c2ncnc3c2C(C)CC3O)CC1)c1ccc(Cl)cc1 (stereo not given) + CC(Nc1ncnc2nc[nH]c12)c1cc2cccc(Cl)c2c(=O)n1-c1ccccc1
inactive: viability, T/C [1] 103% | viability, T/C [2] 98% | viability, T/C [3] 97.1% | viability, T/C [4] 91% | viability, T/C [5] 64.3% | viability, T/C [6] 47.9% | viability, T/C [7] 106% | viability, T/C [8] 88.5% | viability, T/C [9] 91.8% | viability, T/C [10] 82.2% | viability, T/C [11] 66.3% | viability, T/C [12] 46.8% | viability, T/C [13] 86% | viability, T/C [14] 102% | viability, T/C [15] 86.8% | viability, T/C [16] 77.9% | viability, T/C [17] 62.1% | viability, T/C [18] 43% | viability, T/C [19] 92.1% | viability, T/C [20] 82.3% | viability, T/C [21] 76.5% | viability, T/C [22] 65.9% | viability, T/C [23] 55.2% | viability, T/C [24] 44.3% | viability, T/C [25] 63.5% | viability, T/C [26] 62.1% | viability, T/C [27] 63% | viability, T/C [28] 51.6% | viability, T/C [29] 45.3% | viability, T/C [30] 39.1% | viability, T/C [31] 52.5% | viability, T/C [32] 48.6% | viability, T/C [33] 49.3% | viability, T/C [34] 40.7% | viability, T/C [35] 37.9% | viability, T/C [36] 31.8%
96.5 nM: IC50 (second compound 10 µM)
8770 nM: IC50 (second compound 0.1 µM)
5570 nM: IC50 (second compound 1 µM)
8610 nM: IC50 (second compound 0.0316 µM)
1870 nM: IC50 (second compound 3.16 µM)
6480 nM: IC50 (second compound 0.316 µM)

CCN1CCN(Cc2ccc(Nc3ncc(F)c(-c4cc(F)c5nc(C)n(C(C)C)c5c4)n3)nc2)CC1 + CC(Nc1ncnc2nc[nH]c12)c1cc2cccc(Cl)c2c(=O)n1-c1ccccc1
> 1000 nM: IC50 (second compound 0.0316 µM) | IC50 (second compound 0.1 µM)
988 nM: IC50 (second compound 0.316 µM)
inactive: viability, T/C [37] 96.7% | viability, T/C [38] 93.2% | viability, T/C [1] 81.4% | viability, T/C [2] 58.9% | viability, T/C [3] 57.1% | viability, T/C [4] 56.8% | viability, T/C [39] 98.2% | viability, T/C [40] 84.4% | viability, T/C [7] 79% | viability, T/C [8] 59.1% | viability, T/C [9] 55% | viability, T/C [10] 51.9% | viability, T/C [41] 92.9% | viability, T/C [42] 80.7% | viability, T/C [13] 71.2% | viability, T/C [14] 56.8% | viability, T/C [15] 47.4% | viability, T/C [16] 53.5% | viability, T/C [43] 78.4% | viability, T/C [44] 70.8% | viability, T/C [19] 53.6% | viability, T/C [20] 47.8% | viability, T/C [21] 50.3% | viability, T/C [22] 49.6% | viability, T/C [45] 62.1% | viability, T/C [46] 54.5% | viability, T/C [25] 49% | viability, T/C [26] 36.8% | viability, T/C [27] 40.5% | viability, T/C [28] 46.7% | viability, T/C [47] 46.5% | viability, T/C [48] 40.7% | viability, T/C [31] 37.2% | viability, T/C [32] 29.3% | viability, T/C [33] 41.1% | viability, T/C [34] 49.6%
20.1 nM: IC50 (second compound 3.16 µM)
< 3.16 nM: IC50 (second compound 10 µM)
85.4 nM: IC50 (second compound 1 µM)

Cn1ncc(Cl)c1-c1cc(C(=O)NC(CN)Cc2cccc(F)c2)sc1Cl (stereo not given) + CC(Nc1ncnc2nc[nH]c12)c1cc2cccc(Cl)c2c(=O)n1-c1ccccc1
3590 nM: IC50 (second compound 0.1 µM)
inactive: viability, T/C [1] 100% | viability, T/C [2] 96.4% | viability, T/C [3] 84.6% | viability, T/C [4] 74.9% | viability, T/C [5] 55% | viability, T/C [6] 27.8% | viability, T/C [7] 103% | viability, T/C [8] 97.7% | viability, T/C [9] 95.4% | viability, T/C [10] 75.4% | viability, T/C [11] 53.3% | viability, T/C [12] 29.2% | viability, T/C [13] 93.1% | viability, T/C [14] 97.6% | viability, T/C [15] 84.9% | viability, T/C [16] 65.2% | viability, T/C [17] 48.9% | viability, T/C [18] 27.5% | viability, T/C [19] 77.5% | viability, T/C [20] 80.5% | viability, T/C [21] 69.5% | viability, T/C [22] 64% | viability, T/C [23] 43.6% | viability, T/C [24] 23.4% | viability, T/C [25] 63.6% | viability, T/C [26] 62.2% | viability, T/C [27] 57% | viability, T/C [28] 51.9% | viability, T/C [29] 36.3% | viability, T/C [30] 22% | viability, T/C [31] 45.3% | viability, T/C [32] 45% | viability, T/C [33] 47.5% | viability, T/C [34] 43.2% | viability, T/C [35] 29.1% | viability, T/C [36] 20.9%
3880 nM: IC50 (second compound 0.0316 µM)
1050 nM: IC50 (second compound 3.16 µM)
< 31.6 nM: IC50 (second compound 10 µM)
2190 nM: IC50 (second compound 1 µM)
2610 nM: IC50 (second compound 0.316 µM)

Cn1nccc1Nc1nccc(-c2ccn(C(CO)c3ccc(Cl)c(F)c3)c(=O)c2)n1 (stereo not given) + CC(Nc1ncnc2nc[nH]c12)c1cc2cccc(Cl)c2c(=O)n1-c1ccccc1
inactive: viability, T/C [1] 80.1% | viability, T/C [2] 68.8% | viability, T/C [3] 56.8% | viability, T/C [4] 46.4% | viability, T/C [5] 38.6% | viability, T/C [6] 27.9% | viability, T/C [7] 75.3% | viability, T/C [8] 70.2% | viability, T/C [9] 50.6% | viability, T/C [10] 44.3% | viability, T/C [11] 36.4% | viability, T/C [12] 27.1% | viability, T/C [13] 79.3% | viability, T/C [14] 62.3% | viability, T/C [15] 48% | viability, T/C [16] 40.1% | viability, T/C [17] 35.5% | viability, T/C [18] 26.8% | viability, T/C [19] 64.8% | viability, T/C [20] 50.1% | viability, T/C [21] 39.4% | viability, T/C [22] 36.4% | viability, T/C [23] 33% | viability, T/C [24] 22.1% | viability, T/C [25] 45.9% | viability, T/C [26] 38.8% | viability, T/C [27] 28.5% | viability, T/C [28] 24.8% | viability, T/C [29] 25.2% | viability, T/C [30] 21.2% | viability, T/C [31] 36.5% | viability, T/C [32] 27.3% | viability, T/C [33] 25.7% | viability, T/C [34] 20.8% | viability, T/C [35] 22.9% | viability, T/C [36] 16.8%
117 nM: IC50 (second compound 1 µM)
300 nM: IC50 (second compound 0.316 µM)
512 nM: IC50 (second compound 0.1 µM)
706 nM: IC50 (second compound 0.0316 µM)
< 31.6 nM: IC50 (second compound 3.16 µM) | IC50 (second compound 10 µM)

Cn1ncnc1[C@H]1c2n[nH]c(=O)c3cc(F)cc(c23)N[C@@H]1c1ccc(F)cc1 + CC(Nc1ncnc2nc[nH]c12)c1cc2cccc(Cl)c2c(=O)n1-c1ccccc1
> 100 nM: IC50 (second compound 0.0316 µM) | IC50 (second compound 0.1 µM) | IC50 (second compound 0.316 µM) | IC50 (second compound 1 µM) | IC50 (second compound 3.16 µM)
< 0.316 nM: IC50 (second compound 10 µM)
inactive: viability, T/C (second compound 0.0316 µM, first compound 0.000316 µM) 106% | viability, T/C (second compound 0.0316 µM, first compound 0.001 µM) 108% | viability, T/C [37] 97.6% | viability, T/C [38] 92.5% | viability, T/C [1] 98.9% | viability, T/C [2] 77.1% | viability, T/C (second compound 0.1 µM, first compound 0.000316 µM) 99.7% | viability, T/C (second compound 0.1 µM, first compound 0.001 µM) 99.7% | viability, T/C [39] 103% | viability, T/C [40] 94% | viability, T/C [7] 92% | viability, T/C [8] 79.2% | viability, T/C (second compound 0.316 µM, first compound 0.000316 µM) 94.7% | viability, T/C (second compound 0.316 µM, first compound 0.001 µM) 103% | viability, T/C [41] 86.8% | viability, T/C [42] 93.3% | viability, T/C [13] 86.9% | viability, T/C [14] 76.1% | viability, T/C (second compound 1 µM, first compound 0.000316 µM) 87.2% | viability, T/C (second compound 1 µM, first compound 0.001 µM) 81.9% | viability, T/C [43] 80.8% | viability, T/C [44] 78% | viability, T/C [19] 73.4% | viability, T/C [20] 65% | viability, T/C (second compound 3.16 µM, first compound 0.000316 µM) 63.7% | viability, T/C (second compound 3.16 µM, first compound 0.001 µM) 60.9% | viability, T/C [45] 54.1% | viability, T/C [46] 60.6% | viability, T/C [25] 49.8% | viability, T/C [26] 52.3% | viability, T/C (second compound 10 µM, first compound 0.000316 µM) 48.9% | viability, T/C (second compound 10 µM, first compound 0.001 µM) 47.6% | viability, T/C [47] 46.8% | viability, T/C [48] 46.4% | viability, T/C [31] 46% | viability, T/C [32] 38.8%
